# Measurements taken from US20150132382A1, “COMPOSITIONS AND METHODS OF TREATMENT COMPRISING FOSFOMYCIN DISODIUM” (Forest Laboratories Holdings Ltd., priority 2013, published 2015).
# Experiments:
# [1] = Borsa et al 1988; cited from earlier work
# [2] = Microenvironmental pH of fosfomycin sodium, with and without organic acid; type: physicochemical
# From the text: Fosfomycin may be granulated by using methods such as slugging, low or high shear granulation or fluid bed granulation. For example, for high shear granulation (e.g., Diosna Mixer Granulator), fosfomycin can be blended with a water soluble filler (e.g., lactose, sucrose, mannitol and sorbitol) and granulated with binder (sugars like sucrose and liquid glucose; natural binders like starch and pre-gelatinized starch; synthetic/semisynthetic polymers like HPMC, povidone, PEG, polyvinyl alcohol) solution. The granules are dried, milled and blended with an organic acid (e.g., citric acid, tartaric acid, succinic acid, malic acid, fumaric acid), anti-adherent (e.g., talc, fumed silica) and lubricant (sodium stearyl fumarate). The organic acid serves as a neutralizer counteracting microenvironmental high alkalinity resulting from fosfomycin sodium. Fosfomycin sodium microenvironmental pH of about 9 would be reduced to pH 6-8 due to the presence of an organic acid. The final blend is compressed into tablets (1.4-1.7 g/tablet) followed by film coating (e.g., Opadry) in a conventional coating pan. These formulations can provide≧80% fosfomycin dissolution in less than 30 minutes at pH 1.2.
# [3] = cited from earlier work
# [4] = compared with the other fosfomycin salt (Bergan 1990); cited from earlier work
SMILES,gastric irritation [1],microenvironmental pH [2],solubility in water [3],bioavailability [4]
"C[C@@H]1O[C@@H]1P(=O)(O)O [Fosfomycin disodium, fosfomycin disodium]",known to cause gastric irritation,about 9,–,–
C[C@@H]1O[C@@H]1P(=O)([O-])[O-].[Ca+2] [fosfomycin calcium],–,–,slightly soluble in water,lower bioavailability
